Measured values: PMC10142904, “Identification of Novel Cyclooxygenase-1 Selective Inhibitors of Thiadiazole-Based Scaffold as Potent Anti-Inflammatory Agents with Safety Gastric and Cytotoxic Profile” (Molecules, 2023)
Where “and” joins values, the source holds several entries; their conditions need not be identical. Equal values may be shown once. Read-outs that look alike come from different tables or passages of the source.

Key:
[1] = cited from earlier work
[2] = system: carrageenan-induced mouse paw edema; assay: Carrageenan-induced mouse paw edema; type: in vivo; conditions: i.p., 0.028 mmol/kg, paw weight after 3.5 h; for inhibition in vivo at 28 µmol/kg: Mus musculus, ip, 3.5 h
Method: All tested compounds were administrated through i.p. with a molar concentration of 0.028 mmol/kg.
The animals were weighed and then randomly divided into control, standard and test groups with each group including 10 mice. […] Edema was induced by injecting 0.1 mL of 1% aqueous solution of carrageenan subcutaneously to the sub-plantar region of the right hind paw, utilizing the left paw as control. The assessed derivatives, in suspended water/Tween-80, were injected i.p. […] After 3.5 h, the hind paws were excised and were weighed separately. The edema paws were estimated as paw weight increase.

MRC-5 cells = assay: Cytotoxicity / cell proliferation in MRC-5 cells; type: cell-based, human; conditions: MRC-5 cells, 0.1, 1 and 10 μM, 48 h
Method: The evaluation of cellular cytotoxicity of derivatives 3, 4, 10, 11 and 14 in normal human MRC-5 cells was accomplished at three different concentrations in cell culture, i.e., 0.1, 1 and 10 μM (Figure 7). No substantial effect on cell proliferation after 48 h of exposure was found in cultures, as the growth was ≥98% for all assessed agents by comparison with the control (untreated cells) (Figure 7).
The MRC-5 human cell line from lung fibroblast was stored and then utilized in our laboratory in a conventional manner (passage < 40). MRC-5 cells were cultured (using a humidified atmosphere enclosing 5% CO2 at 37 °C) in medium DMEM with 10% v/v FBS, 1% PS penicillin–streptomycin. The assessed derivatives were dissolved in dimethyl sulfoxide and stored at a temperature of 4 degrees centigrade. For cytotoxicity assessment, cells were seeded in 96-well culture plates at 5 × 10^4 cells/mL (initial density) and permitted to attach for at least 3 h before adding the compounds at increasing concentrations (0.1, 1 and 10 µM). […] To evaluate the cytotoxicity of each derivative, the cells were given an additional 48 h to grow before estimating their number in culture utilizing the Neubauer counting chamber (microscope observation). In every treated culture, cell growth was expressed and reported as the percentage of untreated growing cells. GraphPad Prism 6.0 program was utilized in order to accomplish statistical t-test analysis.
Figure 7 Cell proliferation assessment of MRC-5 cell lines subjected to different derivatives in cell culture. MRC-5 cell lines grown in culture were incubated separately with each of the derivatives at concentrations of 0.1, 1 and 10 μM for 48 h. The cell number was analyzed in cell cultures with microscopic techniques (Neubauer counting chamber), as reported in “Methods” and expressed as % of the proliferation of cultures involving control untreated cells. […] The diagram illustrated above and the t-test statistical analysis were performed utilizing the GraphPad Prism 6.0 program. No significant statistical difference between the control untreated culture cells with each tested derivative was attained.

ovine COX-1 = molecular target: T1, ovine COX-1 (Ovis aries, UniProt P05979); assay: COX-1 inhibition (Cayman COX Inhibitor Screening Assay); type: biochemical; conditions: for IC50: read-out: COX-1 Inhibition, IC50 (μΜ)
T1 construct: purchased Cayman Chemical Co., Ann Arbor, MI, USA
T1 sequence (P05979 25-600): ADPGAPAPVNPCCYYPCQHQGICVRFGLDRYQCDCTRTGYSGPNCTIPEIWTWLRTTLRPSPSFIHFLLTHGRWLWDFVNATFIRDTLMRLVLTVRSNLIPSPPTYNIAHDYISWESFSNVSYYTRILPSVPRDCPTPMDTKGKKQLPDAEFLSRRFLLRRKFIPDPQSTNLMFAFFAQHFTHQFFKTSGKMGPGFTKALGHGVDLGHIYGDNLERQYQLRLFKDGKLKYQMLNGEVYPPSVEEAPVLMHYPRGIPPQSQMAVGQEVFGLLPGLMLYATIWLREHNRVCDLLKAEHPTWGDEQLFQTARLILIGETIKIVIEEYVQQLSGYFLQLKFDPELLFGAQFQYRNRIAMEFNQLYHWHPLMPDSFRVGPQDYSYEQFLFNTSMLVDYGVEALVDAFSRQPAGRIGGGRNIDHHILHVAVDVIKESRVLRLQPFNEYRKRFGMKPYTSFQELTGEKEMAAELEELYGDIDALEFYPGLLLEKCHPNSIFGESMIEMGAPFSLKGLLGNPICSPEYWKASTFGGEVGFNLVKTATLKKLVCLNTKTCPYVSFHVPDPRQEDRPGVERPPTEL
Method: (§1) κ-Carrageenan and lipoxygenase type I-B from soybean were obtained from Sigma (St. Louis, MO, USA). COX inhibition was studied utilizing the kit of “COX Inhibitor Screening Assay” (Cayman Chemical Co., Ann Arbor, MI, USA).
(§2) The action of the tested derivatives on COX-1 and COX-2 inhibition was analyzed utilizing a commercial kit furnished by Cayman (Cayman Chemical Co., Ann Arbor, MI, USA) and by applying the instructions of the manufacturer. The kit utilizes human recombinant COX-2 and ovine COX-1 enzymes. […] The assay analyzes PGF2a produced by SnCl2 reduction of COX-derived PGH2.

soybean LOX = system: T2, soybean LOX; assay: LOX activity inhibition; type: biochemical
T2 construct: purchased Sigma (St. Louis, MO, USA)
Source text: κ-Carrageenan and lipoxygenase type I-B from soybean were obtained from Sigma (St. Louis, MO, USA). COX inhibition was studied utilizing the kit of “COX Inhibitor Screening Assay” (Cayman Chemical Co., Ann Arbor, MI, USA). In vivo tests, male and female (23–30 g) mice R”’ were stored in the Centre of the School of Veterinary Medicine (EL54-BIO42), (Aristotle University of Thessaloniki, Thessaloniki, Greek), licensed by the state official veterinary authorities (presidential degree 56/2013, in standardization with the European Directive 2010/63/EEC). The experimental protocols were approved by the Committee of Animal Ethics of the Prefecture of Central Macedonia (no. 270079/2500).
The reaction mixture contained the final concentration (300 µΜ) of the test derivatives, dissolved in absolute ethanol (10–300 µM), or the solvent (control), soybean LOX, dissolved in 0.9% NaCl solution (250 u/mL) and sodium linoleate (100 µM), in Tris–HCl buffer, pH 9.0. The reaction was monitored for 7 min at a temperature of 28 °C, noting the absorbance (234 nm) of a conjugated diene structure, following the formation of 13-hydroperoxy-linoleic acid. The performance of the assay was validated utilizing NDGA as a standard. For the evaluation of the inhibition type, the above experiments were repeated, utilizing sodium linoleate (1 mM), which is greater than the saturating substrate concentration.

human recombinant COX-2 = system: T3, human recombinant COX-2; assay: COX-2 inhibition (Cayman COX Inhibitor Screening Assay); type: biochemical
T3 construct: purchased Cayman Chemical Co., Ann Arbor, MI, USA
Method: as §1, §2

gastric mucosa = assay: Ulcerogenic activity (gastric lesions after oral dosing); type: in vivo; conditions: mice, oral 0.028 mmol/kg, 3 successive days, N = 5
Method: Gastric toxicity was conducted through oral administration of 0.028 mmol/kg of the tested derivatives on mice, and the extent of lesions of the gastric mucosa was measured. […] This study clearly indicated the superiority of our compounds over indomethacin concerning ulcerogenic liability.
The ulcerogenicity effect of compounds was assessed on male mice by following the reported protocol. Male mice weighing 22–25 g were separated into six groups (five animals in each group). […] The placebo control group was administrated saline with few drops of Tween-80. The animals were sacrificed 4 h after the last dose, and the stomachs were inspected for stomach lesions. The scoring of ulcerogenicity was expressed in terms of: average number of ulcers per stomach, percentage incidence of ulcers and percent incidence of ulcer divided by 10. The ulcer index was calculated using the sum of the three above values.

CC(C)Cc1ccc([C@H](CF)C(=O)O)cc1 [(S)-F-ibuprofen]
Gastric damage (in words) [1]: low gastric damage

O=C1N/C(=N\c2nnc(C34CC5CC(CC(C5)C3)C4)s2)S/C1=C\c1ccccc1 [Compound 1]
inhibition in vivo at 28 µmol/kg [2]: 40.8 ± 1.9%

O=C1N/C(=N\c2nnc(C34CC5CC(CC(C5)C3)C4)s2)S/C1=C\c1ccc(F)cc1 [Compound 2]
inhibition in vivo at 28 µmol/kg [2]: 39.7 ± 1.6%

O=C1NC(=Nc2nnc(C34CC5CC(CC(C5)C3)C4)s2)SC1=Cc1ccc(Br)cc1 [Compound 3]
Cell growth by comparison with the control (untreated cells) (MRC-5 cells): ≥ 98%
COX-1 Inhibition, Inhibition (%) 200 μΜ (ovine COX-1): 100%
IC50 (ovine COX-1): 1080 nM and 1120 nM
Enzymatic inhibition against LOX (in words) (soybean LOX): modest enzymatic inhibition
LOX Inhibition (%) 100 μΜ (soybean LOX): 42.9 ± 1.9 %
COX-2 Inhibition, Inhibition (%) 200 μΜ (human recombinant COX-2): 0%
inhibition in vivo at 28 µmol/kg [2]: 62%
Edema Inhibition, (%) [2]: 62.0 ± 1.8 %
Number of Animals with Ulcer (gastric mucosa): nil

O=C1NC(=Nc2nnc(C34CC5CC(CC(C5)C3)C4)s2)SC1=Cc1ccc([N+](=O)[O-])cc1 [Compound 4]
Cell growth by comparison with the control (untreated cells) (MRC-5 cells): ≥ 98%
COX-1 Inhibition, Inhibition (%) 200 μΜ (ovine COX-1): 100%
IC50 (ovine COX-1): 1120 nM and 1080 nM
Enzymatic inhibition against LOX (in words) (soybean LOX): modest enzymatic inhibition
LOX Inhibition (%) 100 μΜ (soybean LOX): 39.8 ± 181 %
COX-2 Inhibition, Inhibition (%) 200 μΜ (human recombinant COX-2): 0%
inhibition in vivo at 28 µmol/kg [2]: 66.7%
Edema Inhibition, (%) [2]: 66.7 ± 2.1 %
Number of Animals with Ulcer (gastric mucosa): nil

Cc1ccc(/C=C2\S/C(=N/c3nnc(C45CC6CC(CC(C6)C4)C5)s3)NC2=O)cc1 [Compound 5]
inhibition in vivo at 28 µmol/kg [2]: 47.2 ± 1.2%

COc1ccc(/C=C2\S/C(=N/c3nnc(C45CC6CC(CC(C6)C4)C5)s3)NC2=O)cc1 [Compound 6]
inhibition in vivo at 28 µmol/kg [2]: 37 ± 1.6%

CN(C)c1ccc(/C=C2\S/C(=N/c3nnc(C45CC6CC(CC(C6)C4)C5)s3)NC2=O)cc1 [Compound 7]
inhibition in vivo at 28 µmol/kg [2]: 43.6 ± 1.3%

O=C1N/C(=N\c2nnc(C34CC5CC(CC(C5)C3)C4)s2)S/C1=C\c1ccccc1[N+](=O)[O-] [Compound 8]
inhibition in vivo at 28 µmol/kg [2]: 37 ± 1.4%

O=C1N/C(=N\c2nnc(C34CC5CC(CC(C5)C3)C4)s2)S/C1=C\c1cccc([N+](=O)[O-])c1 [Compound 9]
inhibition in vivo at 28 µmol/kg [2]: 41.9 ± 1.8%

O=C1NC(=Nc2nnc(C34CC5CC(CC(C5)C3)C4)s2)SC1=Cc1cccc(F)c1F [Compound 10, 2-{[5-(Adamantan-1-yl)-1,3,4-thiadiazol-2-yl]-imino}-5-(2,3-difluorobenzylidene)-1,3-thiazolidin-4-one]
Cell growth by comparison with the control (untreated cells) (MRC-5 cells): ≥ 98%
inhibition in vivo at 28 µmol/kg [2]: 55.8%
Edema Inhibition, (%) [2]: 55.8 ± 1.9 %

O=C1N/C(=N\c2nnc(C34CC5CC(CC(C5)C3)C4)s2)S/C1=C\c1c(F)cccc1F [Compound 11]
Cell growth by comparison with the control (untreated cells) (MRC-5 cells): ≥ 98%
inhibition in vivo at 28 µmol/kg [2]: 60%

O=C1N/C(=N\c2nnc(C34CC5CC(CC(C5)C3)C4)s2)S/C1=C\c1cccc(Cl)c1Cl [Compound 12]
inhibition in vivo at 28 µmol/kg [2]: 34.5 ± 1.1%

O=C1N/C(=N\c2nnc(C34CC5CC(CC(C5)C3)C4)s2)S/C1=C\c1ccc(Cl)cc1Cl [Compound 13]
inhibition in vivo at 28 µmol/kg [2]: 36 ± 1.8%

O=C1NC(=Nc2nnc(C34CC5CC(CC(C5)C3)C4)s2)SC1=Cc1c(Cl)cccc1Cl [Compound 14]
Cell growth by comparison with the control (untreated cells) (MRC-5 cells): ≥ 98%
COX-1 Inhibition, Inhibition (%) 200 μΜ (ovine COX-1): 100%
IC50 (ovine COX-1): 9620 ± 500 nM
Enzymatic inhibition against LOX (in words) (soybean LOX): modest enzymatic inhibition
LOX Inhibition (%) 100 μΜ (soybean LOX): 34.5 ± 1.6 %
COX-2 Inhibition, Inhibition (%) 200 μΜ (human recombinant COX-2): 0%
inhibition in vivo at 28 µmol/kg [2]: 60 ± 1.9%
Number of Animals with Ulcer (gastric mucosa): nil

COc1cc(/C=C2\S/C(=N/c3nnc(C45CC6CC(CC(C6)C4)C5)s3)NC2=O)ccc1O [Compound 15]
inhibition in vivo at 28 µmol/kg [2]: 21.4%
Edema Inhibition, (%) [2]: 21.4 ± 2.1 %

Cc1onc(-c2ccc(Cl)o2)c1-c1ccccc1 [Compound P6]
Gastric toxicity (in words) [1]: devoid of any gastric toxicity

COc1ccc(-c2nc(C(=O)N3CCN(C)CC3)sc2-c2ccc(OC)cc2)cc1 [FR122047]
Gastric toxicity (in words) [1]: devoid of any gastric toxicity

COc1ccc2c(c1)c(CC(=O)O)c(C)n2C(=O)c1ccc(Cl)cc1 [Indomethacin, reference compound]
Number of Animals with Ulcer (gastric mucosa): 4/5
Number of Animals with Ulcer (gastric mucosa; listed as indomethacin): four out of five

COc1ccc(-c2noc(CC(=O)O)c2-c2ccc(OC)cc2)cc1 [Mofezolac]
Ulcer index ([1]; dose of 10 mg): 0.98

COc1ccc2c(c1)c(CC(=O)O)c(C)n2C1CCN(C)CC1 [N-methylpiperidinylindole]
Gastric toxicity (in words) ([1]; in vivo): devoid of any gastric toxicity

COc1ccc2cc([C@H](C)C(=O)O)ccc2c1 [Naproxen, reference compound]
COX-2 Inhibition, Inhibition (%) 200 μΜ (human recombinant COX-2): 17.0 ± 2.3 %

COc1ccc(-n2nc(C(F)(F)F)cc2-c2ccc(Cl)cc2)cc1 [SC-560]
Gastric toxicity (in words) [1]: devoid of any gastric toxicity

Nc1ccc(NC(=O)c2ccc(C(F)(F)F)cc2)cc1 [TFAP]
Gastric toxicity (in words) ([1]; in vivo): devoid of any gastric toxicity

COc1ccc(-c2nc(NCC(=O)O)sc2-c2ccc(OC)cc2)cc1 [diarylthiazole]
Gastric damage (in words) [1]: low gastric damage
